A word on the IC50: it is the concentration needed to halve the response being measured. A word on the IC80: it is the concentration needed for an effect of 80%. In general, Ki refers to a dissociation constant, usually derived from enzyme kinetics or from competition with a known ligand.

For one data set, the target named is T1, ecFoID G8S (Escherichia coli, UniProt P24186, G8S).
T1 construct: made in house; host or cells: E. coli BL21 (DE3)
Kind of data set: FoID dehydrogenase (DH) enzyme assay. It counts as biochemical, E. coli. Here is the method: (§1) (6R,S)-5,10-Methylene-5,6,7,8-tetrahydrofolic acid ((6R,S)-5,10-CH2-THF), calcium salt and (6R,S)-5,10-Methenyl-5,6,7,8-tetrahydrofolic acid ((6R,S)-5,10-CH=THF) chloride were purchased from Schircks Laboratories (Bauma, Switzerland) and were used as substrates for FoID dehydrogenase and cyclohydrolase enzyme assays, respectively. Only the R-isomer, which accounts for 50% of (6R,S)-5,10-CH2-THF and (6R,S)-5,10-CH=THF, respectively, is used by the enzyme. (6R,S)-5,10-CH2-THF was dissolved in N2-spargeled basic buffer (50 mM Tris-HCl (pH 8.0), 100 mM β-mercaptoethanol) as described by Sah and Varshney, 2015a (6R,S)-5,10-CH=THF was first dissolved in DMSO as a 100 mM stock solution.
(§2) Because FoID is a bifunctional enzyme, dehydrogenase and cyclohydrolase activities were determined for FoID enzyme kinetics, respectively. The dehydrogenase activity of FoID was assayed for its substrate 5,10-CH2-THF and cofactor NADP+ (in the case of MTHFD2, NAD+ was used as cofactor) based on monitoring the formation of 5,10-CH=THF while the cyclohydrolase activity of FoID was determined for its substrate 5,10-CH=THF by monitoring the hydrolysis of 5,10-CH2-THF. The enzyme kinetics for the dehydrogenase activity of all FoIDs except hsMTHFD1_DC were determined at 30° C. in 50 mM Tris-HCl (pH 7.5), 30 mM β-mercaptoethanol. The hsMTHFD1_DC dehydrogenase activity was measured in 25 mM MOPS (pH 7.3), 30 mM β-mercaptoethanol at 30° C. To measure the enzyme kinetics constants for 5,10-CH2-THF, for example in the case of ecFoID, the NADP concentration was fixed at 1 mM and the concentration of 5,10-CH2-THF varied from 5 μM to 1,500 μM (R-isomer). Similarly, to measure the kinetic constants of ecFoID for NADP+, the concentration of 5,10-CH2-THF (R-isomer) was fixed at 1 mM and the concentration of NADP+ varied from 10 μM to 1,500 μM. For different FoIDs, the varied concentration range of substrates could be different. The 50 μL reactions of dehydrogenase assays were initiated by adding appropriate amounts enzyme (4 nM ecFoID, 4 nM spFoID, 15 nM hsMTHFD1_DC, 20 nM hsMTHFD2, 20 nM G8S, 20 nM Q98H, 10 nM K54N, 200 nM ΔK54R55 in the corresponding assays) and terminated with 50 μL 1 M HCl after 2 min incubation at 30° C. To monitor the formation of 5,10-CH=THF, the absorbance of the reaction mixture was monitored at 350 nm in micro UV cuvettes (BRAND, Essex, Connecticut, USA). The concentration of 5,10-CH=THF produced in the reaction was determined using an extinction co-efficient of 0.0249 μM-1 cm-1. Cyclohydrolase activity for each FoID was assayed in the same buffer as dehydrogenase activity at 30° C. but for 30 s. The concentration of FoID used in each assay was 5 nM of ecFoID, spFoID and hsMTHFD1_DC, respectively, and 2 nM of hsMTHFD2. The consumption of 5,10-CH=THF was measured by recording the absorbance of the reactions at 355 nm using the TECAN Infinite 200 PRO equipped with a monochromator. To measure the enzyme kinetic constants, different concentrations of 5,10-CH=THF (varied from […]) were used in […] reaction mixtures. The inhibition constants (Ki) of carolacton on FoID were determined by measuring the apparent Km values when adding certain amounts of carolacton to the enzyme reactions. For ecFoID, 10 nM carolacton was added in the dehydrogenase assay and 50 nM carolacton was used in the cyclohydrolase assay. For spFoID, 25 nM carolacton was added in both dehydrogenase assay and cyclohydrolase assay. For hsMTHFD1_DC, 30 nM carolacton was added in the dehydrogenase assay and 10 nM in the cyclohydrolase assay. […] To compare the inhibition effects of carolacton between the different FoIDs, the half maximal inhibitory concentration (IC50) of carolacton on the same amount of enzyme was determined for FoIDs involved in this study. The enzyme concentration used to determine dehydrogenase activity IC50 was 10 nM, and the enzyme used for cyclohydrolase IC50 measurements was 5 nM. All enzyme kinetics measurements were performed as independent triplicates. […]

The next data set concerns the target T2, ecFoID Q98H (Escherichia coli, UniProt P24186, Q98H).
T2 construct: made in house; host or cells: E. coli BL21 (DE3)
Kind of data set: FoID dehydrogenase (DH) enzyme assay. It counts as biochemical, E. coli. The procedure:
as §1, §2

For another data set, the target named is T3, spFoID (Streptococcus pneumoniae serotype 4, UniProt Q97RI9).
T3 construct: made in house; host or cells: E. coli BL21 (DE3)
Kind of data set: FoID cyclohydrolase (CYH) enzyme assay. It counts as biochemical, S. pneumoniae. The procedure: as §1
Because FoID is a bifunctional enzyme, dehydrogenase and cyclohydrolase activities were determined for FoID enzyme kinetics, respectively. The dehydrogenase activity of FoID was assayed for its substrate 5,10-CH2-THF and cofactor NADP+ (in the case of MTHFD2, NAD+ was used as cofactor) based on monitoring the formation of 5,10-CH=THF while the cyclohydrolase activity of FoID was determined for its substrate 5,10-CH=THF by monitoring the hydrolysis of 5,10-CH2-THF. The enzyme kinetics for the dehydrogenase activity of all FoIDs except hsMTHFD1_DC were determined at 30° C. in 50 mM Tris-HCl (pH 7.5), 30 mM β-mercaptoethanol. The hsMTHFD1_DC dehydrogenase activity was measured in 25 mM MOPS (pH 7.3), 30 mM β-mercaptoethanol at 30° C. […] To monitor the formation of 5,10-CH=THF, the absorbance of the reaction mixture was monitored at 350 nm in micro UV cuvettes (BRAND, Essex, Connecticut, USA). The concentration of 5,10-CH=THF produced in the reaction was determined using an extinction co-efficient of 0.0249 μM-1 cm-1. […] The consumption of 5,10-CH=THF was measured by recording the absorbance of the reactions at 355 nm using the TECAN Infinite 200 PRO equipped with a monochromator. […] The inhibition constants (Ki) of carolacton on FoID were determined by measuring the apparent Km values when adding certain amounts of carolacton to the enzyme reactions. […]

A further data set has as its system L-929 mouse fibroblasts. Kind of data set: Toxicity assay (MTT, confluent layer). Type of data set: cell-based. Particulars: L929; after 18 h. The procedure: L-929 mouse fibroblasts from DSMZ cultivated at 37° C. and […] in DME medium (high glucose) supplemented with 10% fetal calf serum. Cell culture reagents came from Life Technologies Inc. (GIBCO BRL). […] of sus-pended cells (100,000/mL) were seeded into wells of 96-well plate. After 4 days when the cells had formed a confluent layer, […] of serial dilutions of the test compound were added to the cells. After 18 hours of incubation metabolic activity of the cells was determined using an MTT assay (Mosman et al., 1983).

T3 sequence (Q97RI9 whole entry): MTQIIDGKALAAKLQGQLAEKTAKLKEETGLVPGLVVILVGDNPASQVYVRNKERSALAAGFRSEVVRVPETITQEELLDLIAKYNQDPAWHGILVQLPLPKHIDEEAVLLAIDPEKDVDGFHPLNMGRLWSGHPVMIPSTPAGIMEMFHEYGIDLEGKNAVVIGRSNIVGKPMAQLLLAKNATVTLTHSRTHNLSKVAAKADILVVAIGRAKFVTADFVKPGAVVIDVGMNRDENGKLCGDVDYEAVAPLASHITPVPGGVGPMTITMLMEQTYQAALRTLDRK

As for `CO[C@H](CC(=O)O)[C@@H](C)C(=O)[C@H](C)/C=C(\C)[C@H]1OC(=O)[C@H](O)[C@H](O)/C=C/[C@H](C)CCC[C@@H]1C` [Carolacton, carolacton], the half-inhibitory concentration (IC50) worked out at 86.5 nM on ecFoID G8S; 313 nM on ecFoID Q98H; 38.1 nM at spFoID (5 nM enzyme, read-out: IC50, carolacton inhibition on CYH activity). The IC80 at spFoID (5 nM enzyme, read-out: IC80, carolacton inhibition on CYH activity) amounted to 101 nM. The Ki at spFoID (vs 5,10-CH=THF, read-out: Ki (5,10-CH═THF), carolacton inhibition on CYH activity) was determined as 38.1 nM. Moreover, in the data set with L-929 mouse fibroblasts, the acute toxicity entry is given as “no acute toxicity”.

The values above are taken from US11357752B2, “Carolacton and derivatives thereof for use in the treatment of cell proliferation disorders” (Helmholtz-Zentrum für Infektionsforschung GmbH, priority 2017, dated 2022).
